Measurements taken from article PMC12446476 (Nature Communications, 2025).
Converted amounts (≈) assume the structure as drawn. Read-outs that look alike come from different tables or passages of the source.

Test system: non-gonococcal Neisseria
Experiment: MIC determination for non-gonococcal Neisseria, agar dilution
Assay type: cell-based, Neisseria species
Conditions: read-out: Minimum inhibitory concentration
Excerpt: The 2024 WHO N. gonorrhoeae reference strains were used for quality control. Only whole MIC doubling dilutions are reported. Clinical breakpoints or the epidemiological cutoff (ECOFF, to indicate azithromycin resistance) from EUCAST (v14.0, https://www.eucast.org/clinical_breakpoints) were used to classify isolates as antimicrobial susceptible or resistant. […] Two times the standard inoculum defined by CLSI was used to establish consistent growth in untreated control samples for some strains. In vitro time-kill assays were performed according to CLSI guidelines[65] using Columbia Broth (BD Difco) supplemented with 1% IsoVitaleX Enrichment (BD). Viable bacterial counts were generated by plating 10-fold serially diluted samples on GC agar plates containing 1% IsoVitaleX Enrichment (BD).

In the case of `Cc1c(CN(C)C(=O)/C=C/c2cnc3c(c2)N[C@H](C)[C@H](O)C(=O)N3)oc2ccccc12` [Debio 1453], the MIC (Neisseria mucosa 4, Replicate 1) is reported as 1 µg/mL (≈ 2.38 µM), the MIC (Neisseria mucosa 4, Replicate 2) is reported as 1 µg/mL (≈ 2.38 µM) and the MIC (Neisseria mucosa 4, Replicate 3) is reported as 1 µg/mL (≈ 2.38 µM). For the same compound, the MIC (Neisseria mucosa 5, Consensus) was 0.5 µg/mL (≈ 1.19 µM), the MIC (Neisseria mucosa 5, Replicate 1) was 0.25 µg/mL (≈ 0.595 µM) and the MIC (Neisseria mucosa 5, Replicate 2) was 0.5 µg/mL (≈ 1.19 µM). For the same compound, the MIC (Neisseria mucosa 5, Replicate 3) was 0.5 µg/mL (≈ 1.19 µM), the MIC (Neisseria mucosa 6, Consensus) was 0.5 µg/mL (≈ 1.19 µM) and the MIC (Neisseria mucosa 6, Replicate 1) was 0.25 µg/mL (≈ 0.595 µM). For the same compound, the MIC (Neisseria mucosa 6, Replicate 2) was 0.5 µg/mL (≈ 1.19 µM), the MIC (Neisseria mucosa 6, Replicate 3) was 0.5 µg/mL (≈ 1.19 µM) and the MIC (Neisseria mucosa 7, Consensus) was 0.25 µg/mL (≈ 0.595 µM). It also gave an MIC (Neisseria mucosa 7, Replicate 1) of 0.25 µg/mL (≈ 0.595 µM), an MIC (Neisseria mucosa 7, Replicate 2) of 0.25 µg/mL (≈ 0.595 µM) and an MIC (Neisseria mucosa 7, Replicate 3) of 0.25 µg/mL (≈ 0.595 µM). It also gave an MIC (Neisseria mucosa 8, Consensus) of 1 µg/mL (≈ 2.38 µM), an MIC (Neisseria mucosa 8, Replicate 1) of 1 µg/mL (≈ 2.38 µM) and an MIC (Neisseria mucosa 8, Replicate 2) of 1 µg/mL (≈ 2.38 µM). For the same compound, the MIC (Neisseria mucosa 8, Replicate 3) was 1 µg/mL (≈ 2.38 µM), the MIC (Neisseria mucosa 9, Consensus) was 2 µg/mL (≈ 4.76 µM) and the MIC (Neisseria mucosa 9, Replicate 1) was 1 µg/mL (≈ 2.38 µM). It also gave an MIC (Neisseria mucosa 9, Replicate 2) of 2 µg/mL (≈ 4.76 µM), an MIC (Neisseria mucosa 9, Replicate 3) of 2 µg/mL (≈ 4.76 µM) and an MIC (Neisseria perflava 1, Consensus) of 0.25 µg/mL (≈ 0.595 µM). It also gave an MIC (Neisseria perflava 1, Replicate 1) of 0.25 µg/mL (≈ 0.595 µM), an MIC (Neisseria perflava 1, Replicate 2) of 0.25 µg/mL (≈ 0.595 µM) and an MIC (Neisseria perflava 1, Replicate 3) of 0.25 µg/mL (≈ 0.595 µM). For the same compound, the MIC (Neisseria perflava 2, Consensus) was 0.032 µg/mL (≈ 0.0761 µM), the MIC (Neisseria perflava 2, Replicate 1) was 0.032 µg/mL (≈ 0.0761 µM) and the MIC (Neisseria perflava 2, Replicate 2) was 0.032 µg/mL (≈ 0.0761 µM). For the same compound, the MIC (Neisseria perflava 2, Replicate 3) was 0.032 µg/mL (≈ 0.0761 µM), the MIC (Neisseria perflava 3, Consensus) was 0.032 µg/mL (≈ 0.0761 µM) and the MIC (Neisseria perflava 3, Replicate 1) was 0.032 µg/mL (≈ 0.0761 µM). The MIC (Neisseria perflava 3, Replicate 2) was 0.032 µg/mL (≈ 0.0761 µM), the MIC (Neisseria perflava 3, Replicate 3) was 0.032 µg/mL (≈ 0.0761 µM) and the MIC (Neisseria perflava 4, Consensus) was 0.25 µg/mL (≈ 0.595 µM). It also gave an MIC (Neisseria perflava 4, Replicate 1) of 0.25 µg/mL (≈ 0.595 µM), an MIC (Neisseria perflava 4, Replicate 2) of 0.25 µg/mL (≈ 0.595 µM) and an MIC (Neisseria perflava 4, Replicate 3) of 0.25 µg/mL (≈ 0.595 µM). The MIC (Neisseria perflava 6, Consensus) was 0.25 µg/mL (≈ 0.595 µM), the MIC (Neisseria perflava 6, Replicate 1) was 0.25 µg/mL (≈ 0.595 µM) and the MIC (Neisseria perflava 6, Replicate 2) was 0.5 µg/mL (≈ 1.19 µM). The MIC (Neisseria perflava 6, Replicate 3) was 0.25 µg/mL (≈ 0.595 µM), the MIC (Neisseria perflava 7, Consensus) was 0.5 µg/mL (≈ 1.19 µM) and the MIC (Neisseria perflava 7, Replicate 1) was 0.5 µg/mL (≈ 1.19 µM). The MIC (Neisseria perflava 7, Replicate 2) was 0.5 µg/mL (≈ 1.19 µM), the MIC (Neisseria perflava 7, Replicate 3) was 0.5 µg/mL (≈ 1.19 µM) and the MIC (Neisseria perflava 8, Consensus) was 0.25 µg/mL (≈ 0.595 µM). The MIC (Neisseria perflava 8, Replicate 1) was 0.25 µg/mL (≈ 0.595 µM), the MIC (Neisseria perflava 8, Replicate 2) was 0.5 µg/mL (≈ 1.19 µM) and the MIC (Neisseria perflava 8, Replicate 3) was 0.25 µg/mL (≈ 0.595 µM). It also gave an MIC (Neisseria perflava 9, Consensus) of 0.5 µg/mL (≈ 1.19 µM), an MIC (Neisseria perflava 9, Replicate 1) of 0.25 µg/mL (≈ 0.595 µM) and an MIC (Neisseria perflava 9, Replicate 2) of 0.5 µg/mL (≈ 1.19 µM). For the same compound, the MIC (Neisseria perflava 9, Replicate 3) was 0.5 µg/mL (≈ 1.19 µM), the MIC (Neisseria perflava 10, Consensus) was 0.5 µg/mL (≈ 1.19 µM) and the MIC (Neisseria perflava 10, Replicate 1) was 0.5 µg/mL (≈ 1.19 µM). The MIC (Neisseria perflava 10, Replicate 2) was 0.5 µg/mL (≈ 1.19 µM), the MIC (Neisseria perflava 10, Replicate 3) was 0.5 µg/mL (≈ 1.19 µM) and the MIC (Neisseria perflava 11, Consensus) was 1 µg/mL (≈ 2.38 µM). For the same compound, the MIC (Neisseria perflava 11, Replicate 1) was 1 µg/mL (≈ 2.38 µM), the MIC (Neisseria perflava 11, Replicate 2) was 1 µg/mL (≈ 2.38 µM) and the MIC (Neisseria perflava 11, Replicate 3) was 0.5 µg/mL (≈ 1.19 µM). For the same compound, the MIC (Neisseria perflava 12, Consensus) was 0.5 µg/mL (≈ 1.19 µM), the MIC (Neisseria perflava 12, Replicate 1) was 0.5 µg/mL (≈ 1.19 µM) and the MIC (Neisseria perflava 12, Replicate 2) was 0.5 µg/mL (≈ 1.19 µM). The MIC (Neisseria perflava 12, Replicate 3) was 0.5 µg/mL (≈ 1.19 µM), the MIC (Neisseria perflava 13, Consensus) was 0.25 µg/mL (≈ 0.595 µM) and the MIC (Neisseria perflava 13, Replicate 1) was 0.25 µg/mL (≈ 0.595 µM). For the same compound, the MIC (Neisseria perflava 13, Replicate 2) was 0.25 µg/mL (≈ 0.595 µM), the MIC (Neisseria perflava 13, Replicate 3) was 0.25 µg/mL (≈ 0.595 µM) and the MIC (Neisseria perflava 14, Consensus) was 0.5 µg/mL (≈ 1.19 µM). It also gave an MIC (Neisseria perflava 14, Replicate 1) of 0.5 µg/mL (≈ 1.19 µM), an MIC (Neisseria perflava 14, Replicate 2) of 0.5 µg/mL (≈ 1.19 µM) and an MIC (Neisseria perflava 14, Replicate 3) of 0.5 µg/mL (≈ 1.19 µM). The MIC (Neisseria perflava 15, Consensus) was 0.5 µg/mL (≈ 1.19 µM), the MIC (Neisseria perflava 15, Replicate 1) was 0.5 µg/mL (≈ 1.19 µM) and the MIC (Neisseria perflava 15, Replicate 2) was 0.5 µg/mL (≈ 1.19 µM). For the same compound, the MIC (Neisseria perflava 15, Replicate 3) was 0.5 µg/mL (≈ 1.19 µM), the MIC (Neisseria perflava 16, Consensus) was 0.5 µg/mL (≈ 1.19 µM) and the MIC (Neisseria perflava 16, Replicate 1) was 0.5 µg/mL (≈ 1.19 µM). For the same compound, the MIC (Neisseria perflava 16, Replicate 2) was 0.5 µg/mL (≈ 1.19 µM), the MIC (Neisseria perflava 16, Replicate 3) was 1 µg/mL (≈ 2.38 µM) and the MIC (Neisseria perflava 17, Consensus) was 0.5 µg/mL (≈ 1.19 µM). The MIC (Neisseria perflava 17, Replicate 1) was 0.5 µg/mL (≈ 1.19 µM), the MIC (Neisseria perflava 17, Replicate 2) was 0.5 µg/mL (≈ 1.19 µM) and the MIC (Neisseria perflava 17, Replicate 3) was 0.5 µg/mL (≈ 1.19 µM). The MIC (Neisseria perflava 18, Replicate 2) was 0.25 µg/mL (≈ 0.595 µM), the MIC (Neisseria perflava 19, Consensus) was 1 µg/mL (≈ 2.38 µM) and the MIC (Neisseria perflava 19, Replicate 1) was 1 µg/mL (≈ 2.38 µM). It also gave an MIC (Neisseria perflava 19, Replicate 2) of 1 µg/mL (≈ 2.38 µM), an MIC (Neisseria perflava 19, Replicate 3) of 1 µg/mL (≈ 2.38 µM) and an MIC (Neisseria perflava 20, Consensus) of 0.5 µg/mL (≈ 1.19 µM). The MIC (Neisseria perflava 20, Replicate 1) was 0.5 µg/mL (≈ 1.19 µM), the MIC (Neisseria perflava 20, Replicate 2) was 0.5 µg/mL (≈ 1.19 µM) and the MIC (Neisseria perflava 20, Replicate 3) was 0.5 µg/mL (≈ 1.19 µM). For the same compound, the MIC (Neisseria perflava 21, Consensus) was 1 µg/mL (≈ 2.38 µM), the MIC (Neisseria perflava 21, Replicate 1) was 1 µg/mL (≈ 2.38 µM) and the MIC (Neisseria perflava 21, Replicate 2) was 1 µg/mL (≈ 2.38 µM). For the same compound, the MIC (Neisseria perflava 21, Replicate 3) was 1 µg/mL (≈ 2.38 µM), the MIC (Neisseria perflava 22, Consensus) was 1 µg/mL (≈ 2.38 µM) and the MIC (Neisseria perflava 22, Replicate 1) was 1 µg/mL (≈ 2.38 µM). It also gave an MIC (Neisseria perflava 22, Replicate 2) of 1 µg/mL (≈ 2.38 µM), an MIC (Neisseria perflava 22, Replicate 3) of 1 µg/mL (≈ 2.38 µM) and an MIC (Neisseria perflava 23, Consensus) of 0.5 µg/mL (≈ 1.19 µM). It also gave an MIC (Neisseria perflava 23, Replicate 1) of 0.5 µg/mL (≈ 1.19 µM), an MIC (Neisseria perflava 23, Replicate 2) of 0.5 µg/mL (≈ 1.19 µM) and an MIC (Neisseria perflava 23, Replicate 3) of 0.5 µg/mL (≈ 1.19 µM). The MIC (Neisseria perflava 25, Consensus) was 1 µg/mL (≈ 2.38 µM), the MIC (Neisseria perflava 25, Replicate 1) was 1 µg/mL (≈ 2.38 µM) and the MIC (Neisseria perflava 25, Replicate 2) was 1 µg/mL (≈ 2.38 µM).
